Source: patent publication US9427474B2, “Conjugates of a polymer, a bisphosphonate and an anti-angiogenesis agent and uses thereof in the treatment and monitoring of bone related diseases” (Ramot at Tel-Aviv University Ltd., priority 2008, dated 2016)
HPMA copolymer = not defined here

Columns and labels:
[1] = tested on: human prostate cell line PC3; assay: PC3 cell proliferation assay (XTT); type: cell-based
Description: Human Umbilical vain endothelial cells (HUVEC) were plated onto 24-well plate (1×10^4 cells/well) in growth factors reduced media, (EBM-2, Cambrex, USA) supplemented with 5% Fetal Bovine Serum (FBS). Following 24 hours of incubation (37° C.; 5% CO2) medium was replaced with EGM-2 (Cambrex, USA). PC3 cells were plated onto 96 well plate (2×10^3 cells/well) in DMEM supplemented with 5% FBS and incubated for 24 hours (37° C.; 5% CO2). Following 24 hours of incubation medium was replaced with DMEM containing 10% FBS. Cells were challenged with a combination of paclitaxel and ALN, a combination of Paclitaxel-FK and ALN, with each drug alone, and with […] (SEQ ID NO: 12), at serial concentrations for 72 hours. Control cells were grown with or without growth factors. After incubation HUVEC and PC3 were counted by Coulter Counter or by XTT respectively.

[2] = tested on: DA3 murine mammary cancer cells; assay: Antitumor activity in vivo, mCherry-labeled DA3 tumors in the tibia; set-up: species or system Balb/c female mice; conditions: 9 days of treatment
Description: 9 Balb/c female mice (n=3 per group) were injected intra tibia with 5×10^5 mCherry-labeled DA3 murine mammary cancer cells. […] (SEQ ID NO: 12) or with vehicle (1:1:8 cremophor EL:ethanol:saline). Therapy was initiated 10 days after tumor cells injection. Tumor progression was monitored by CRI™ Maestro non-invasive intravital imaging system. At termination, tibias were weighed and analyzed. Data is expressed as mean±standard error of the mean (s.e.m.).
Balb/c female mice bearing mCherry-labeled DA3 tumors in the tibia were treated with free and conjugated ALN and PTX (1:1.6, 1.25 mg/kg ALN and 2 mg/kg PTX, every day). Tumor growth rates were measured and monitored by mCherry fluorescence signal using CRI™ Maestro non-invasive intravital imaging system.

HUVEC = HUVEC cell proliferation assay; type: cell-based, human; conditions: for IC50: 48 hours incubation, Paclitaxel-equivalent, read-out: IC50, proliferation of HUVECs
Description: Human Umbilical vain endothelial cells (HUVEC) were plated onto 24-well plate (1×10^4 cells/well) in growth factors reduced media, (EBM-2, Cambrex, USA) supplemented with 5% Fetal Bovine Serum (FBS). Following 24 hours of incubation (37° C.; 5% CO2) medium was replaced with EGM-2 (Cambrex, USA). PC3 cells were plated onto 96 well plate (2×10^3 cells/well) in DMEM supplemented with 5% FBS and incubated for 24 hours (37° C.; 5% CO2). Following 24 hours of incubation medium was replaced with DMEM containing 10% FBS. […] Control cells were grown with or without growth factors. After incubation HUVEC and PC3 were counted by Coulter Counter or by XTT respectively.

With CC(=O)O[C@H]1C(=O)[C@@]2(C)[C@H]([C@H](OC(=O)c3ccccc3)[C@]3(O)C[C@H](OC(=O)[C@H](O)[C@@H](NC(=O)c4ccccc4)c4ccccc4)C(C)=C1C3(C)C)[C@]1(OC(C)=O)CO[C@@H]1C[C@@H]2O [PTX, paclitaxel] the IC50 ([1]; Homo sapiens, PC-3, 72 hours, PTX alone, read-out: IC50, proliferation of PC3 cells) was 1 µM, the “antitumor effect (in words)” value [2] was “no therapeutic effect” and the “antitumor effect (in words)” value ([2]; listed as Free PTX) was “no antitumor effect”. For the same molecule, the “antitumor effect (in words)” value ([2]; listed as free PTX) was “unaffected”.

With NCCCC(O)(P(=O)(O)O)P(=O)(O)O [ALN, (4-amino-1-hydroxybutylidene)bisphosphonic acid] the “concentration at which proliferation of HUVEC was inhibited (only the highest dose tested)” value (HUVEC; ALN alone) was 6.25 µM, the “additional effect on proliferation of HUVEC when combined with Paclitaxel or Paclitaxel-FK” value (HUVEC; tested concentrations 10 μM-0.001 nM) was “no additional effect” and the “effect on the proliferation of PC3 cells” value ([1]; concentrations tested 0.01 nM-10 μM, alone or combined with PTX or PTX-FK) was “no effect”.

With “HPMA copolymer-GGFK-PTX conjugate: cathepsin B-enzymatically cleavable HPMA copolymer conjugate of paclitaxel ({HPMA copolymer}-GGFK-paclitaxel; reading uncertain; also: conjugated to HPMA copolymer, conjugated to paclitaxel (PTX))” the IC50 (HUVEC) was roughly 0.1 µM.

“HPMA copolymer-GGGG-PTX conjugate ({HPMA copolymer}-GGGG-paclitaxel; reading uncertain; also: conjugated to HPMA copolymer, conjugated to paclitaxel (PTX))” was tested, and the “concentration inhibiting HUVEC proliferation relative to cathepsin B cleavable HPMA-GGFK-PTX conjugate” value (HUVEC; 48 hours) was 2 logs and the IC50 (HUVEC) was roughly 10 µM.
